{"source": "paper PMC6934184", "about": "“Selective DNA-PKcs inhibition extends the therapeutic index of localized radiotherapy and chemotherapy” (The Journal of Clinical Investigation, 2019)", "target": "T1, TLK2 (Homo sapiens, UniProt Q86UE8)", "T1 construct": "purchased Thermo Fisher Scientific (Life Technologies) SelectScreen", "T1 sequence (Q86UE8 whole entry)": "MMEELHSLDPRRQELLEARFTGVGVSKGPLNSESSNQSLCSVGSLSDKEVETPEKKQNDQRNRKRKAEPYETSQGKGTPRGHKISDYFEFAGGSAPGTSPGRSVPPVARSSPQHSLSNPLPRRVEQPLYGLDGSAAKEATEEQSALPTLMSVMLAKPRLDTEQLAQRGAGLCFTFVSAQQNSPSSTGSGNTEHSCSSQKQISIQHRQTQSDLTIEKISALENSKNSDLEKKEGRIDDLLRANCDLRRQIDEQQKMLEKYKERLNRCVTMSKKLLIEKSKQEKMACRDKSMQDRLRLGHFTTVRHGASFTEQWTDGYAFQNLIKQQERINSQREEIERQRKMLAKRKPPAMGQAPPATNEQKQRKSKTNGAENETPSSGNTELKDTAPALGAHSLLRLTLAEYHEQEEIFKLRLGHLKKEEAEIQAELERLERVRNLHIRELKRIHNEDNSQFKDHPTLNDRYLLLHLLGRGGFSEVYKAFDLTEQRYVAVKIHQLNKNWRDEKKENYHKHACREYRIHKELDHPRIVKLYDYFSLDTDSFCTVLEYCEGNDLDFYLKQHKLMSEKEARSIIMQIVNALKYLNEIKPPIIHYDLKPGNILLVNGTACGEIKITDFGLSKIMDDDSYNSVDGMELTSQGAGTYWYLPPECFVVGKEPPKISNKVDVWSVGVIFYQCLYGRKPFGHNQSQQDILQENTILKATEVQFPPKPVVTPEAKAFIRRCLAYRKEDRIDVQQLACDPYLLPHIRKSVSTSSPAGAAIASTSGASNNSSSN", "experiment": "SelectScreen LanthaScreen", "type": "binding", "details": "read-out: % displacement", "outline": "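NU5455 was profiled across the SelectScreen Broad panel of kinase activity and binding assays. Z'LYTE reactions such as CSF1R ran at apparent Km ATP, while the Adapta CAMK1 assay used ATP listed as 10. Values are given as percent.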"}
{"smiles": "CN(C(=O)CN1CCOCC1)c1ccc2sc3c(-c4cccc5c(=O)cc(N6CC7CCC(C6)O7)oc45)cccc3c2c1", "note": "[NU5455]", "values": [{"measurement": "inhibition at 1 µM", "value": -0.3, "unit": "%"}]}
